# Measurements published in article PMC3023147 (Protein & cell, 2010).
# Biological target: T1, mTAT (mouse tyrosine aminotransferase) (Mus musculus, UniProt Q8QZR1)
# T1 sequence (Q8QZR1 41-442): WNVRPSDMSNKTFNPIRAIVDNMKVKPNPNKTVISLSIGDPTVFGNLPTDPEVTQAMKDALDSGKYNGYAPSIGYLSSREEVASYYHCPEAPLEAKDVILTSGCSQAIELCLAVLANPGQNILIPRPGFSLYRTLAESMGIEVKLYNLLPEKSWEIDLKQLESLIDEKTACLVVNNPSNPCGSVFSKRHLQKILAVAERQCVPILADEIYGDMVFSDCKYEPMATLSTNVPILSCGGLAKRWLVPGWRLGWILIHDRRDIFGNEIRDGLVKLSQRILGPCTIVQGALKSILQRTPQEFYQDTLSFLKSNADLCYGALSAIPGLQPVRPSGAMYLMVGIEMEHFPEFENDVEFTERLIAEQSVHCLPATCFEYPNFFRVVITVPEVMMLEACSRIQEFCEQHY
# Assay: X-ray crystal structure, […] Å
# Assay type: binding
# Settings: covalent; internal Schiff base with Lys280; pH 6.8
smiles,measurement,value
Cc1ncc(COP(=O)(O)O)c(C=O)c1O [PLP],"X-ray crystal structure, 2.9 Å",Residual electron density clearly revealed the presence of covalently bound PLP in the active center
